The target of the assay is purified recombinant human FGFR2 protein (Homo sapiens (Human), UniProt P21802). The experiment in a line: Measurement of inhibitory effect on FGFR2 kinase activity. Format: biochemical.

Experimental findings from patent US9108973B2, “3,5-disubstituted alkynylbenzene compound and salt thereof” (Taiho Pharmaceutical Co., Ltd., priority 2012, dated 2015) are described below.

SMILES strings stand for the structures. pIC50: −log10 of the molar value. Read-outs that look alike come from different tables or passages of the source. Some results are limits rather than exact numbers.

Sequence of purified recombinant human FGFR2 protein (P21802 22-821): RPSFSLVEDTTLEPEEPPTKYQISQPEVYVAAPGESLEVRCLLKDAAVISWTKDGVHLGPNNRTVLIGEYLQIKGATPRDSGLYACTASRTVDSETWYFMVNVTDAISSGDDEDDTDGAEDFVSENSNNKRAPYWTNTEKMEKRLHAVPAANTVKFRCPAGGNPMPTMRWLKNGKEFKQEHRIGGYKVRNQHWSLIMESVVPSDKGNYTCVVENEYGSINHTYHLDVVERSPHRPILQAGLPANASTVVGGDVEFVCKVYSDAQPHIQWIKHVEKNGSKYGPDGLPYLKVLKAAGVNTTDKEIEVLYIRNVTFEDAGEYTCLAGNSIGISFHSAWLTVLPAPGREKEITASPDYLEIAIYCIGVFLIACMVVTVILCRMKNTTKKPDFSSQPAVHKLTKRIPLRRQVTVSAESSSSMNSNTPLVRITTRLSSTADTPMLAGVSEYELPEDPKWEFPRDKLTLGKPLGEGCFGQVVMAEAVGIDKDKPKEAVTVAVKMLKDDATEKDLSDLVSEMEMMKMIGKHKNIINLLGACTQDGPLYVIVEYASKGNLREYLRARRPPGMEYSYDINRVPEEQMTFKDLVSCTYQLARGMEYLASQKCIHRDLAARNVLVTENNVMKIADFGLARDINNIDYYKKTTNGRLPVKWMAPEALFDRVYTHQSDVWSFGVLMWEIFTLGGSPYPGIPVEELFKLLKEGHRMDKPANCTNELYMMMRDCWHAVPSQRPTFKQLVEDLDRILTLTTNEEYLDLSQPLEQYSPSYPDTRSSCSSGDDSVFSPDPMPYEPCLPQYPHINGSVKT
Description: Measurement of Inhibitory Effect on FGFR2 Kinase Activity
EDTA (final concentration: 30 mM) diluted with a separation buffer (Caliper Life Sciences, Inc.) was added thereto to terminate the kinase reaction. […] The level of phosphorylation was determined from the quantitative ratio.

For the compound `C=CC(=O)N1C[C@@H](n2cc(C#Cc3cc(OC)cc(OC)c3)c3c(N)ncnc32)C[C@H]1C(=O)OC` [Ex. Compound 66, (2S,4S)-methyl 1-acryloyl-4-(4-amino-5-((3,5-dimethoxyphenyl)ethynyl)-7H-pyrrolo[2,3-d]pyrimidin-7-yl)pyrrolidine-2-carboxylate], the pIC50 is greater than 9.52.
As for `CC(C)c1cc(C#Cc2nn([C@H]3CCN(C(=O)/C=C/CN(C)C)C3)c3ncnc(N)c23)cc(C(C)C)c1` [Ref. Ex. Compound 4, (S)-1-(3-(4-amino-3-((3,5-diisopropylphenyl)ethynyl)-1H-pyrazolo[3,4-d]pyrimidin-1-yl)pyrrolidin-1-yl)-4-(dimethylamino)but-2-en-1-one], for the setting “FGFR2 kinase, FL-Peptide 22 substrate, ATP 75 μM, 25° C. for 120 minutes”, the pIC50 is less than 5.00.

One may read the pIC50 as −log10 of the IC50, conventionally taken in molar units.
